Data on twelve compounds can be found in patent US8883763B2 (Universite Joseph Fourier, priority 2010, dated 2014).

pIC50: −log10 of the molar value.

One assay concerns HMEC cells. Nature of the assay: Proliferation of HMEC cells (GI50). As to conditions: Homo sapiens, 120 h, 50 μM to 1 nM for 5 days. The format is cell-based. The method, then:
The HMECs were seeded at 10% confluence and incubated with the molecules at different concentrations (from 50 μM to 1 nM) for 5 days. The GI50 (50% Growth Inhibition) defines the concentration inducing a 50% reduction in proliferation with respect to the control.

For a further assay, the system named is HeLa cells. Nature of the assay: Indirect immunofluorescence: effect on HeLa cells (mitotic arrest, microtubule depolymerization). The format is cell-based, human. Set-up: key to Effect on Hela at 25 μM / Effect on Hela at 100 μM / Effect on Hela at 50 and 100 μM / Effect on Hela at 50 μM: —: −: no activity on the cells at 25 μM (if there is an effect at high concentrations, this is specified in the table).; *: weak activity (MA and/or slight depolymerization of the MTs and/or slight inhibition of proliferation),; **: average activity (MA and/or moderate depolymerization of the MTs and/or moderate inhibition of proliferation),; ***: strong activity (MA and/or pronounced depolymerization of the MTs and/or pronounced inhibition of proliferation),; ****: very strong activity (MA and/or very pronounced depolymerization of the MTs and/or strong inhibition of proliferation). As to conditions: 25 μM, 24 hours; mitotic index and/or depolymerization of the MTs. The method, then: The cells were cultured on slides in 24-well plates and incubated for 24 hours with molecule 6 at different concentrations from 1 to 10 μM.
Corresponding quantities of DMSO were added to the culture medium in the control wells.
The cells were fixed in a solution of PBS with 4% paraformaldehyde (PFA) and 0.1% glutaraldehyde (GA), for 15 minutes and centrifuged at 300 g for the last 10 minutes of the fixing. The slides were rinsed in PBS and the free aldehyde groups were reduced by two successive 5-minute incubations in PBS containing 1 mg/ml of NaBH4.
After one washing with PBS then another with PBST (PBS with 0.5% triton-X-100), the cells are incubated for 30 minutes at ambient temperature with anti α-tubulin monoclonal antibody solution (DM1A clone, Sigma # T6199) diluted to 1:200 in PBST. After 3 10-minute washings with PBST, the cells are incubated for 30 minutes at ambient temperature in a solution of goat anti-mouse polyclonal antibodies coupled with Alexa 488 (1:1000, Molecular Probes # A-11029) and phalloidin coupled with Texas red to label the actin (1:2000, Molecular Probes # T7471), in PBST also containing Hoechst 33258 (1 μg/ml) for labelling the DNA. After 3 10-minute washings in PBST, the slides are mounted on plates in Fluorsave™ mounting medium (Calbiochem #345789) and are observed and analyzed using an Axiovert 200M inverted fluorescence microscope (Zeiss®). The images are produced with a Plan-Apochromat 63× oil objective (Zeiss®) by means of a Coolsnap HQ camera (Roper Scientifics®) and with Metamorph acquisition software (Universal Imaging™ Corporation).
In order to evaluate the effect of the analogues of compound 6 on PHFs and HeLa cells, the immunofluorescence technique described above was used and adapted to a 96-well dish format. The cells were seeded in glass-bottomed 96-well dishes and incubated for 24 hours in the presence of different concentrations of molecules from 100 μM to 50 nM. And in the same way as described above, the cells were fixed and immunolabelled. Analysis of the phenotypes as well as counting the mitotic cells were carried out with the same microscope but using a ×40 objective (Olympus). The molecules were compared with each other with respect to the mitotic arrest induced on PHFs and HeLa cells at 25 and 0.3 μM.
The mitotic index and/or the depolymerization of the MTs were evaluated at 25 μM.

For another assay, the target named is T1, PP1α (PP1CA) (Oryctolagus cuniculus, UniProt P62139).
T1 construct: purchased New England Biolabs P0754
T1 sequence (P62139 whole entry): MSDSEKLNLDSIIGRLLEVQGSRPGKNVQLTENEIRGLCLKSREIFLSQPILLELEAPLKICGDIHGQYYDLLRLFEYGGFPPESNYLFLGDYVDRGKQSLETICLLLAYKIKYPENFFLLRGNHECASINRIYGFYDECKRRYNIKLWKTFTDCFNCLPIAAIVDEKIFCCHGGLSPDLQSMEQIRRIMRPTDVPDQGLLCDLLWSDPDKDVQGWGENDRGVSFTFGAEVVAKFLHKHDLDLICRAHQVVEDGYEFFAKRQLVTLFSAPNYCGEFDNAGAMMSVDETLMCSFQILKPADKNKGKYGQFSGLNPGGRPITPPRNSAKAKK
Briefly: Protein phosphatase test (PP1 activity, DiFMUP fluorescent substrate). The format is biochemical. As to conditions: PP1CA at 80 mU, fluorescent substrate (50 μM), molecules from 50 μM to 50 nM; read-out: PP1 Inhibition IC50. The method, then: FIG. 13 presents the graph showing the inhibition of the PP1Cα activity by compound 6 in vitro. PP1Cα (New England Biolabs, 30 mU/well) was incubated in the presence of compound 6 at different concentrations and a fluorescent substrate, diFMUP.
Determination of the 1050 was carried out with PP1CA at 80 mU in the presence of a fluorescent substrate
(50 μM) and different concentrations of molecules from 50 μM to 50 nM.
For the activity tests, PP1α (New England Biolabs # P0754) was used at a final concentration of 30 mU or 80 mU for the screening of all the analogues. 6,8-difluoro-4-methylumbelliferyl phosphate (DiFMUP, Invitrogen # D6567) was used as fluorescent substrate at a concentration of […]. All the tests were carried out in a final volume of 100 μl, at 37° C. in 96-microwell plates (Greiner #655096).
Compound 6, combretastatin A4 (CA-4) as well as all the analogues were diluted in 50 μl of PP1 buffer (100 mM Tris-HCl, pH 7.5, 4 mM DTT, 0.2 mM EDTA, 0.5 mM MnCl2) from 50 μM to 50 nM. Corresponding quantities of DMSO were added to control wells. PP1α (30 or 80 mU in 30 μl of PP1 buffer) was added to each well. After incubating for 15 minutes at AT, the substrate was added (in 20 μl of PP1 buffer). After incubating for 20 minutes at 37° C., the fluorescence was measured in a plate fluorometer at 355-460 nm in order to assay the phosphatase activity. The test was carried out three times in duplicate for each condition.

The subject of another assay is bovine brain tubulin. Nature of the assay: In vitro tubulin polymerization test (turbidimetry at 350 nm). The format is biochemical. The following applies: molecules at 50 μM, calculated at t=3000 s, DMSO control = 100%. The procedure: Tubulin was purified from bovine brain using the polymerization-depolymerization process described by (Castoldi M and Popov A V. Protein Expr Purif. 2003, 32(1): pp 83-8).
The in vitro tubulin polymerization tests (at 50 μM) were carried out in the presence of GTP 1 mM in BRB80 buffer (80 mM K-PIPES pH 6.8, 1 mM MgCl2, 1 mM EGTA) at 37° C. The tests were carried out in 96-microwell plates (half-wells) (Costar plates, Corning #3695), in triplicate with a final volume of 70 μl. Tubulin assembly was carried out in the presence of compound 6 or its analogues (all used at a concentration of 50 μM) and was monitored by turbidimetry measurement at 350 nm using a spectrophotometer (Spectramax More, Molecular Devices).
Measurement of the effect of a molecule on polymerization was calculated at t=3000 s taking the value of the control at the same time as being equal to 100%.

Take `O=c1[nH]c(-c2ccc(O)cc2)cc2ccc(O)cc12` [Compound 57, 7-Hydroxy-3-(4-hydroxyphenyl)isoquinoline-1(2H)-one]: in the assay with HMEC cells, the concentration for 50% growth inhibition (GI50) lay in the range of 1 to 25 µM. Further, the “Effect on Hela at 25 μM” value in the assay with HeLa cells is “***”. In addition, on PP1α (PP1CA), the pIC50 is less than 4.30. For the same compound, the Tubulin polymerization inhibition result with bovine brain tubulin is “+ ((+) signifies that the molecule induces tubulin assembly inhibition in vitro comprised between 6 and 25% of the DMSO control.)”.
Take `COc1ccc2c([N+](=O)[O-])c(-c3ccc(C#CC(C)(C)O)cc3)[nH]c(=O)c2c1` [Compound 59]: the GI50 in the assay on HMEC cells was more than 50 µM. The “Effect on Hela at 25 μM” value in the assay with HeLa cells was “—”. The pIC50 at PP1α (PP1CA) was 4.30 to 4.60. Further, in the assay on bovine brain tubulin, the Tubulin polymerization inhibition result is “— ((−) signifies that the molecule induces little or no tubulin assembly inhibition in vitro: 0+ or − −5% of the DMSO control.)”.
As for `COc1ccc2c([N+](=O)[O-])c(-c3ccc(C#CC(C)(C)C)cc3)[nH]c(=O)c2c1` [Compound 60, 3-(4-(3,3-dimethylbut-1-ynyl)phenyl)-7-methoxy-4-nitroisoquinolin-1(2H)-one], in the assay on HMEC cells, the GI50 lay within 1 to 25 µM. In addition, the “Effect on Hela at 25 μM” value in the assay on HeLa cells was “***”. In addition, the pIC50 at PP1α (PP1CA) is not below 5.05. The Tubulin polymerization inhibition result in the assay with bovine brain tubulin is “— ((−) signifies that the molecule induces little or no tubulin assembly inhibition in vitro: 0+ or − −5% of the DMSO control.)”.
The like results for `COc1ccc(-c2cc3ccc(OC)cc3c(=O)n2N)cc1` [Compound 61, 2-Amino-7-methoxy-3-(4-methoxyphenyl)isoquinoline-1(2H)-one] were, in that order, more than 50 µM, “—”, less than 4.30 and “— ((−) signifies that the molecule induces little or no tubulin assembly inhibition in vitro: 0+ or − −5% of the DMSO control.)”.
In the assay on HMEC cells, `COc1ccc(-c2c([N+](=O)[O-])c3ccc(OC)cc3c(=O)n2N)cc1` [Compound 62, 2-Amino-7-methoxy-3-(4-methoxyphenyl)-4-nitroisoquinoline-1(2H)-one] displayed a GI50 of 1 to 25 µM. Also, the “Effect on Hela at 25 μM” value in the assay on HeLa cells is “***”. Also, on PP1α (PP1CA), the pIC50 was less than 4.30. Moreover, in the assay with bovine brain tubulin, the Tubulin polymerization inhibition result is “— ((−) signifies that the molecule induces little or no tubulin assembly inhibition in vitro: 0+ or − −5% of the DMSO control.)”.
The compound `COc1ccc(-c2cc3ccc(OC)cc3c(OC)n2)cc1` [Compound 64, 1,7-Dimethoxy-3-(4-methoxyphenyl)isoquinoline] had a GI50 with HMEC cells of more than 50 µM. Further, in the assay on HeLa cells, the “Effect on Hela at 25 μM” value is “—”. Also, the pIC50 at PP1α (PP1CA) is 4.62 to 5.00. Also, the Tubulin polymerization inhibition entry with bovine brain tubulin was “— ((−) signifies that the molecule induces little or no tubulin assembly inhibition in vitro: 0+ or − −5% of the DMSO control.)”.
With `COc1ccc(-c2cc3ccc(OC)cc3c(=O)n2C)cc1` [Compound 65, 7-Methoxy-3-(4-methoxyphenyl)-2-methylisoquinoline-1(2H)-one], the GI50 in the assay with HMEC cells is 1 to 25 µM. Also, the “Effect on Hela at 25 μM” value with HeLa cells is “*”. For the same compound, the pIC50 at PP1α (PP1CA) was not above 4.30. Besides, the Tubulin polymerization inhibition result with bovine brain tubulin was “+ ((+) signifies that the molecule induces tubulin assembly inhibition in vitro comprised between 6 and 25% of the DMSO control.)”.
With `COc1ccc(-c2c([N+](=O)[O-])c3ccc(OC)cc3c(=O)n2C)cc1` [Compound 66, 7-Methoxy-3-(4-methoxyphenyl)-2-methyl-4-nitroisoquinoline-1(2H)-one], in the assay on HMEC cells, the GI50 fell in the range of 1 to 25 µM. In addition, the “Effect on Hela at 25 μM” value with HeLa cells is “*”. The negative-log IC50 (pIC50) at PP1α (PP1CA) was not below 5.05. Moreover, the Tubulin polymerization inhibition result in the assay with bovine brain tubulin was “+ ((+) signifies that the molecule induces tubulin assembly inhibition in vitro comprised between 6 and 25% of the DMSO control.)”.
Turning to `COc1ccc(-c2cc3ccc(OC)cc3c(=O)n2CCO)cc1` [Compound 67, 2-(2-Hydroxyethyl)-7-methoxy-3-(4-methoxyphenyl)isoquinoline-1(2H)-one], in the assay with HMEC cells, the GI50 lay within 25 to 50 µM. Besides, in the assay with HeLa cells, the “Effect on Hela at 25 μM” value is on record as “—”. For the same compound, at PP1α (PP1CA), the pIC50 is 4.30 to 4.60. Further, the Tubulin polymerization inhibition entry in the assay with bovine brain tubulin is given as “— ((−) signifies that the molecule induces little or no tubulin assembly inhibition in vitro: 0+ or − −5% of the DMSO control.)”.
The like results for `COc1ccc(-c2c([N+](=O)[O-])c3ccc(OC)cc3c(=O)n2CCO)cc1` [Compound 68, 2-(2-Hydroxyethyl)-7-methoxy-3-(4-methoxyphenyl)-4-nitroisoquinoline-1(2H)-one] were, in that order, 25 to 50 µM, “—”, less than 4.30 and “— ((−) signifies that the molecule induces little or no tubulin assembly inhibition in vitro: 0+ or − −5% of the DMSO control.)”.
Regarding `COc1ccc(COc2nc(-c3ccc(OC)cc3)c(I)c3ccc(OC)cc23)cc1` [Compound 69, 4-Iodo-7-methoxy-1-(4-methoxybenzyloxy)-3-(4-methoxyphenyl)isoquinoline], in the assay with HMEC cells, the GI50 fell in the range of 25 to 50 µM. Besides, the “Effect on Hela at 25 μM” value in the assay with HeLa cells is listed as “—”. The pIC50 at PP1α (PP1CA) is 4.30 to 4.60. For the same compound, the Tubulin polymerization inhibition result with bovine brain tubulin was “+ ((+) signifies that the molecule induces tubulin assembly inhibition in vitro comprised between 6 and 25% of the DMSO control.)”.
In the case of `COc1ccc(COc2nc(-c3ccc(OC)cc3)c(C(F)(F)F)c3ccc(OC)cc23)cc1` [Compound 70, 7-Methoxy-1-(4-methoxybenzyloxy)-3-(4-methoxyphenyl)-4-(trifluoromethyl)isoquinoline], in the assay with HMEC cells, the GI50 was 25 to 50 µM. Further, in the assay with HeLa cells, the “Effect on Hela at 25 μM” value is recorded as “—”. Also, the pIC50 on PP1α (PP1CA) was 4.62 to 5.00. Moreover, in the assay with bovine brain tubulin, the Tubulin polymerization inhibition entry is “+ ((+) signifies that the molecule induces tubulin assembly inhibition in vitro comprised between 6 and 25% of the DMSO control.)”.
